Consider two compounds from patent US5290689A, “New cyclic FR-900520 microbial biotransformation agent” (Merck & Co., Inc., priority 1992, dated 1994).

The conditions of assay [1]: reputed; EPO Publication No. 0184162; cited from earlier work.
The subject of assay [2] is mouse T lymphocytes (Splenic T-cells stimulated with ionomycin + PMA). The experiment in a line: T-cell proliferation assay (ionomycin + PMA stimulated, tritiated thymidine uptake). It is filed as cell-based, mouse (C57B1/6). The method, then:
The principle of this assay is to measure the proliferation of mouse T lymphocytes stimulated with the combination of ionomycin plus PMA. A positive sample, e.g. FK-506, in this assay will inhibit T-cell proliferation, as indicated by reduced tritiated thymidine uptake.
T-Cell Proliferation Assay
Purified Compound I, as prepared by HPLC above, was dissolved in absolute ethanol at 1 mg/ml.
Spleens from C57B1/6 mice were taken under sterile conditions and gently dissociated in ice-cold RPMI 1640 culture medium (GIBCO, Grand Island, N.Y.) supplemented with 10% heat-inactivated fetal calf serum (GIBCO). Cells were pelleted by centrifugation at 1500 rpm for 8 minutes. Contaminating red cells were removed by treating the pellet with ammonium chloride lysing buffer (GIBCO) for 2 minutes at 4° C. […]
Purified T lymphocytes were resuspended at 2.5×10^5 cells/ml in complete culture medium composed of RPMI 1640 medium with 10% heat-inactivated fetal calf serum, […], 1 mM sodium pyruvate, 2×10^-5 M 2-mercaptoethanol and 50 μg/ml gentamycin. […] Radioactivity of filter discs corresponding to individual wells was measured by standard liquid scintillation counting methods (Betacounter). Mean counts per minute of replicate wells were calculated and the results expressed as percent inhibition of tritiated thymidine uptake (proliferation) as follows: [formula] […]

“Also recorded” adds a separate entry of the source.

Consider `C=CC[C@@H]1/C=C(\C)C[C@H](C)C[C@H](OC)[C@H]2O[C@@](O)(C(=O)C(=O)N3CCCC[C@H]3C(=O)O[C@H](/C(C)=C/[C@@H]3CC[C@@H](O)[C@H](OC)C3)[C@H](C)[C@@H](O)CC1=O)[C@H](C)C[C@@H]2OC` [FK-506], for which, in assay [1], the “effectiveness as immunosuppressant relative to cyclosporin” value is 100 times.

As to `CC[C@@H]1C=C2COC1(O)C[C@H](O)[C@@H](C)[C@@H](/C(C)=C/[C@@H]1CC[C@@H](O)[C@H](OC)C1)OC(=O)[C@@H]1CCCCN1C(=O)C(=O)[C@]1(O)O[C@H]([C@@H](OC)C[C@@H](C)C2)[C@@H](OC)C[C@H]1C` [Compound I], the “Inhibition of T-cell proliferation on addition of IL2” value in assay [2] (50 units/ml recombinant IL2 added at the initiation of culture) is recorded as “reversed”. Also, the “immunosuppressant activity (inhibition of T-cell activation)” value in assay [2] (qualitative) is listed as “positive inhibition of T-cell activation; also recorded: positive immunosuppressive activity”.
